Like-named read-outs stand apart in the source and are kept apart here.
Experiments:
[1] = Dynamic light scattering of liposome formulations before and after SANS heating cycles; assay type: physicochemical; details: for PDI, Before heating / Size (hydrodynamic), Before heating: before the SANS experiments (n = 5); for Size (hydrodynamic), Before heating: room temperature, D2O; for DLS larger population size: bimodal size distribution; for PDI, After heating / Size (hydrodynamic), After heating: after the SANS experiments (n = 3); for Size (hydrodynamic), After heating: heating to 42° C. and back, eight months after
Protocol: A library of artificial phospholipids was synthesised. Table 5 summarises the characterisation of the liposomal formulations concerning hydrodynamic size and polydispersity, before and after the temperature-dependent SANS measurements. The size of the DPPC and Pad-PC-Pad liposomes was (120±2) nm with a polydispersity index between 0.01 and 0.20. […] Pad-Pad-PC and Sur-PC-Sur liposomes were 400 to 1,500 nm in size with a polydispersity index of 0.57.
DLS measurements were carried out on a DelsaMax PRO (Beckman Coulter, USA) at room temperature and at a lipid concentration of 0.3 mg/mL in D2O. The data were averaged among five independent measurements before heating cycles and three measurements eight months after applying heating cycles. Data were treated with the cumulant analysis method.

[2] = Small-angle neutron scattering (SANS) of liposomes as a function of temperature; assay type: physicochemical
Excerpt: In order to determine the structural parameters, including the bilayer thickness of the selected liposomal formulations, a suitable model for data fitting has to be identified. […] The structure factor was fitted using the sticky hard sphere model (Baxter et al., The Journal of Chemical Physics 1968, 49 (6), 2770-2774; Mays, Langmuir 1989, 5, 422-428). In order to adjust the form factor to the overall shape of the liposomes, an ellipsoidal shell model with a homogeneous cross-section (Guinier, Annales de Physique, 1939; pp 161-237) was applied. The elliptical shell model is defined by three orthogonal axes with lengths a=R, b=R and c=εR, along with eccentricity ε>0, (ε<1: oblate, ε=1: spherical, ε>1: prolate). The model also accounts for variations in bilayer thickness and liposome size. As the scattering data of the Pad-PC-Pad liposomes at the temperature of 35° C. could not be approximated satisfactorily by means of the ellipsoidal shell, the inventors included disks with a homogeneous cross-section—an approach motivated by the cryo-TEM results. Together with the experimental data of the Pad-PC-Pad liposomes at three selected temperatures, the obtained fits are represented in FIG. 23.
The inventors recognised that the inhomogeneity of the liposomal formulations, except for Pad-PC-Pad, concerning the shape and size of the artificial lipids in this study only allows for the reasonable fitting of the q-range, which corresponds to bilayer thickness. For this purpose, the inventors applied an extended Guinier law (Hjelm et al., The Journal of Physical Chemistry B 2000, 104 (2), 197-211; Fratzl, Journal of Statistical Physics 1994, 77 (1-2), 125-143), which yields the thickness of the bilayer. To account for possible multi-lamellarity, the inventors included a para-crystalline stacking model (Schwartz et al., Biophysical journal 1975, 15 (12), 1201-1233; FruÈhwirth et al., Journal of Applied Crystallography 2004, 37 (5), 703-710) as a structure factor.
SANS measurements were performed at the SANS-I beamline at the Swiss Spallation Neutron Source SINQ facility (Paul Scherrer Institute, Villigen, Switzerland). The samples were loaded into 2 mm-path length, boron-free quartz glass cells and mounted in a temperature-controlled holder. This system allows for controlling the temperature of the specimen with an accuracy better than 1 K. The liposomal suspensions were measured between 22 and 42° C. in 3 to 4 K steps. Subsequently, the suspensions were cooled down to room temperature (22° C.) and measured again. Three detector distances, i.e. 1.6, 6.0 and 18.0 m, were used to collect data over the range of scattering vectors 0.01 nm^−1<q<10 nm^−1 at the neutron wavelengths (A) […]. Data were collected with a two-dimensional ^3He-detector with an array of 128×128 pixels and reduced to one-dimensional I(q) scattering curves, thus radially averaging the two-dimensional images. The data were corrected for transmission, background scattering and detector efficiency according to a standard procedure using the BerSANS software package (Keiderling, Applied Physics A 2002, 74 (1), s1455-s1457; Strunz et al., Journal of Applied Crystallography 2000, 33 (3 Part 1), 829-833).
The SANS data were analysed using SASfit software (Breßler et al., Journal of Applied Crystallography 2015, 48 (5), 1587-1598) and corresponding models. A Pad-PC-Pad sample was fitted over the entire measured q-range, whereas we restricted the fit for the other samples to the q-range, which corresponds to lipid bilayer thickness. For Pad-PC-Pad, the inventors used an ellipsoidal shell model with a homogeneous cross-section (Guinier, Annales de Physique, 1939; pp 161-237) and size distributions in terms of both thickness and radius. […]

[3] = reported previously, cited from earlier work
[4] = Release experiments with 5(6)-carboxyfluorescein-loaded large unilamellar vesicles (LUVET100), spontaneous and vortex-triggered; assay type: physicochemical
Excerpt: FIG. 8 Release experiments using 5(6)-carboxyfluorescein-loaded large unilamellar vesicles comprising 1,3-diheptadecanamidopropan-2-yl (2-(trimethylammonio) ethyl) phosphate (4) obtained via extrusion through a 100 nm track-edged filter membrane (LUVET100). Triggered release was induced by shaking the samples for a specific amount of time on a vortex-shaker.
Previously the inventors reported the 5(6)-carboxyfluorescein release from vesicles containing 1,3-palmitoylamido-1,3-deoxy-sn-glycero-2-phosphatidylcholine (2) (Holme et al., Nat. Nanotechnol. 2012, 7, 536-543). […] Increasing the Tm promises improved release properties. […] This leads to a lower leakage of the vesicles at 22° C. (room temperature) as well as 37° C. (average human body temperature) (FIG. 8). A prolongation if the acyl chain to the artificial C18 phospholipid 1,3-stearoylamido-1,3-deoxy-sn-glycero-2-phosphatidylcholine leads to an increased Tm of 52° C., but this phospholipid forms almost no liposomes anymore.
Each sample was treated with Triton X-100 to induce a full release of 5(6)-carboxy fluorescein.
Large unilamellar vesicles with a diameter of 100 nm (LUVET100) of the 1,3-diheptadecanamidopropan-2-yl (2-(trimethylammonio) ethyl) phosphate (4) were prepared following the extrusion protocol: in a 25 ml round bottom flask, 10 mg of the lipid was dissolved in CH2Cl2. After evaporation of the organic solvent, the film was further dried under high vacuum (40 mbar) overnight. Then the film was hydrated with the internal buffer for 30 min (1 ml, 50 mM 5(6)-carboxyfluorescein, 10 mM HEPES buffer (AppliChem), 10 mM NaCl dissolved in pure water, pH 7.4). Now at least 5 freeze-thaw cycles (liquid N2 to 65° C.) were carried out before the suspension was extruded 11 times using a Mini Extruder (Avanti Polar Lipids, USA) using track-edged filters with a mesh size of 100 nm (Whatman, USA). The external buffer was then exchanged on a size exclusion column (1.5×20 cm Sephadex G-50 column) in external buffer (107 mM NaCl dissolved in ultrapure water, 10 mM HEPES, pH 7.4).

[5] = Differential scanning calorimetry, main phase transition of vesicle membranes; assay type: physicochemical; details: main phase transition temperature of liposome membrane
Excerpt: Interdigitation of membrane leaflets also influences the membranes main-phase transition temperature. […] Also, the value for the bilayer main-phase transition temperature is 11.5 K higher than the calculated critical temperature from the monolayer experiments, where no interdigitation is possible.

[6] = 22 ° C. (after cooling down to room temperature)

| SMILES | DLS most probable / dominant or smaller population size [1] | PDI, Before heating [1] | DLS larger population size [1] | most probable bilayer thickness ([2]; 22 ° C.) | most probable bilayer thickness [2, 6] | most probable bilayer thickness ([2]; 25 ° C.) | most probable bilayer thickness ([2]; 28 ° C.) | most probable bilayer thickness ([2]; 32 ° C.) | most probable bilayer thickness ([2]; 35 ° C.) | most probable bilayer thickness ([2]; 39 ° C.) | most probable bilayer thickness ([2]; 42 ° C.) | Tm, main phase transition temperature [3] | PDI, After heating [1] | Size (hydrodynamic), After heating [1] | further results |
| --- | --- | --- | --- | --- | --- | --- | --- | --- | --- | --- | --- | --- | --- | --- | --- |
| CCCCCCCCCCCCCCCC(=O)NC[C@H](COP(=O)([O-])OCC[N+](C)(C)C)NC(=O)CCCCCCCCCCCCCCC [Pad-Pad-PC] | about 150 nm | 0.57 | ~3 μm | 5.57 nm | 5.67 nm | 5.55 nm | 5.55 nm | 5.52 nm | 5.54 nm | 5.58 nm | 5.57 nm | 46 °C | – | – | Size (hydrodynamic), Before heating ([1]; listed as Pad-Pad-PC (2)): 1500 ± 30 nm; PDI, Before heating ([1]; listed as Pad-Pad-PC (2)): 0.57 ± 0.01; Tm, main phase transition temperature ([3]; listed as Pad-Pad-PC (2)): 40-47 °C |
| CCCCCCCCCCCCCCCC(=O)OCC(COC(=O)CCCCCCCCCCCCCCC)OP(=O)([O-])OCC[N+](C)(C)C [Pes-PC-Pes] | about 100 nm | 0.57 ± 0.01 | ~1 μm | 3.9 nm | 4.82 nm | 4.17 nm | 4.46 nm | 4.42 nm | 4.6 nm | 4.68 nm | 4.58 nm | 39 °C | 0.92 ± 0.08 | 3100 ± 200 nm | Size (hydrodynamic), Before heating ([1]; listed as Pes-PC-Pes (3)): 170 ± 20 nm; increase in bilayer thickness at phase transition ([2]; present study): 18%; increase in bilayer thickness after the heating cycle ([2]; temperature cycle to 42° C. including cooling to room temperature): 24% |
| CCCCCCCCCCCCCCCCCC(=O)NCC(CNC(=O)CCCCCCCCCCCCCCCCC)OP(=O)([O-])OCC[N+](C)(C)C [Sad-PC-Sad, 1,3-distearamidopropan-2-phosphocholine] | 160 nm | 0.23 ± 0.01 | – | 3.15 nm | 3.01 nm | 3.51 nm | 3.51 nm | 3.49 nm | 3.46 nm | 3.38 nm | 3.33 nm | 52 °C | 0.20 ± 0.02 | 220 ± 10 nm | Release at 37° C. after 2 h ([4]; 37° C., 2 h): 9.1%; Release at RT after 60 s vortex ([4]; mechanically induced release, 22° C. (RT), 60 s vortexing): 8.32%; Release 37° C. after 60 s vortex ([4]; mechanically induced release, 37° C., 60 s vortexing): 40.2%; Release at RT after 6 days ([4]; spontaneous release, RT, (6 days)): 8.4%; Tm [5]: 52 °C; Size (hydrodynamic), Before heating ([1]; listed as Sad-PC-Sad (6)): 160 ± 3 nm; bilayer thickness variations ([2]; 22 to 42° C.): ≤ 10% |

Source: patent US11904051B2, “Shear stress sensitive liposomes” (Universität Basel, priority 2018, dated 2024)
